Results from PubChem BioAssay (NCI).
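Grown in 96-well plates, cells were treated for 48 hours with each compound at five concentrations. Insufficient inhibition: endpoint recorded as highest concentration tested. GI50 is the concentration that inhibits growth by half. TGI marks complete inhibition of growth.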

tested on: OVCAR-5 ovarian; experiment: NCI anticancer screen, dose series, 48 h

Row | SMILES | TGI [µM] | GI50 [µM]
1 | O=c1[nH][nH]c(=O)n1Cc1ccccc1Cn1c(=O)[nH][nH]c1=O | > 100 | –
2 | CC1C=C(CCCCCCCCCCCC[C@@H](O)[C@@H]2CC[C@@H]([C@@H]3CC[C@@H](C(O)CCCCCCCCCCCCC4=C[C@H](C)OC4=O)O3)O2)C(=O)O1 (stereo partly specified) | > 100 | –
3 | CCNC(=S)N/N=C/c1cc([N+](=O)[O-])ccc1O | > 100 | –
4 | COc1cc([C@@H]2OCC3C(c4ccc5c(c4)OCO5)OCC32)cc(OC)c1OC (stereo partly specified) | > 100 | –
5 | CCOC(=O)c1c2ccccc2n2c(N)c(C(N)=O)nnc12 | > 100 | –
6 | Cc1cc(N(CCC#N)CCC#N)ccc1/C(N=Nc1ccc(Cl)cc1)=N\NC(=O)c1ccccc1 | > 100 | –
7 | CC[C@@]1(O)C(=O)OCc2c1cc1n(c2=O)Cc2c-1nc1ccccc1c2/C=N\NC(=O)CN | > 100 | –
8 | CCc1ccc(CCN2CCCCC2)nc1 | > 100 | –
9 | N#CN=C(N(Cc1ccccc1)Cc1ccccc1)N(Cc1ccccc1)Cc1ccccc1 | > 100 | –
10 | CNC(=O)C(C)C1CCC2(C)C=CC(=O)C(C)=C2C1O (stereo unspecified) | > 100 | –
11 | O=C(NNC(=O)c1ccccc1SSc1ccccc1C(=O)NNC(=O)c1ccccc1S)c1ccccc1S | > 100 | –
12 | CCOC(=O)C(NC(C)=O)(Nc1ccc(F)cc1)C(F)(F)F (stereo unspecified) | > 100 | –
13 | CCOc1cc2c(cc1O)/C(=N\OC)C[C@@H]1[C@@H]2CC[C@]2(C)[C@@H](O)CC[C@@H]12 | > 100 | –
14 | O=C1/C(=C/c2ccc(O)cc2)CC/C1=C\c1ccc(O)cc1 | > 100 | –
15 | CC1(C)N=C(/C(Cl)=[N+](/[O-])C(=O)c2ccc(F)cc2)C(C)(C)N1O | 36.1 | –
16 | COc1cc(/C=C2\S/C(=N/Nc3nc(-c4ccc(Br)cc4)cs3)NC2=O)cc(OC)c1OC | 83.1 | –
17 | COC(=O)[C@H]1CO[C@@H](C(C)(C)C)N1C(=O)N1C=CC(=O)C[C@@H]1C | > 100 | –
18 | CCCNC1=C2CC(C)CC(OC)[C@@H](O)[C@H](C)/C=C(\C)C(OC(N)=O)C(OC)/C=C\C=C(/C)C(=O)NC(=CC1=O)C2=O (stereo partly specified) | – | 13.3
19 | C[n+]1c2ccccc2c(/C=N\NS(=O)(=O)c2ccc(O)c(C(=O)O)c2)c2ccccc21 | > 100 | –
20 | O=C(Nc1ccc(C2=NCCN2)cc1)c1cncc(C(=O)Nc2ccc(C3=NCCN3)cc2)c1 | > 100 | –
21 | Clc1ccc(/C=C/c2nc3ccccc3s2)cc1Cl | > 100 | –

Row | SMILES | TGI [µM] | GI50 [µM]
22 | CCC1(O)CC2CC(=O)OC2C1O (stereo unspecified) | > 100 | –
23 | Cc1ccc(SCC(CSCCO)OCn2cnc3c2NC(N)=NC32OCCO2)cc1 (stereo unspecified) | > 100 | –
24 | C(/c1ccco1)=c1/nc(-c2ccccc2)n2c1nc1ccccc12 | > 100 | –
25 | NC(=O)C(c1ccccc1)N1OC2C(=O)N(c3ccccc3)C(=O)C2C1c1c2ccccc2c(Cl)c2ccccc12 (stereo unspecified) | > 100 | –
26 | CC[C@@]1(C[C@H]2C[C@@]3(C(=O)OC)c4[nH]c5ccccc5c4CCN3C2=O)COC2(CCCCC2)O1 | > 100 | –
27 | O=S1(=O)NC(=NCc2c[nH]c3ccccc23)N(c2ccccc2)c2ccncc21 | > 100 | –
28 | CC(C)CCCCCCCCCCCCC(=O)NCC(=O)NC1C(C)OC(Nc2ncnc3c2ncn3C)C(O)C1O (stereo unspecified) | 97 | –
29 | COc1ccc(CNc2nc(NCc3ccc(OC)c(OC)c3)nc(NC3CCCCC3)n2)cc1 | > 100 | –
30 | C[C@@]12C[C@@H](c3ccccc3O1)N1CCCCSC1=N2 | > 100 | –
31 | CCOC(=O)Nn1c(C)nnc1-c1ccccc1 | > 100 | –
32 | Cc1cn(C2CC(n3cc(Cn4cc(I)c(=O)[nH]c4=O)nn3)C(CO)O2)c(=O)[nH]c1=O (stereo unspecified) | > 100 | –
33 | c1ccc(N=C2SC3=Nc4cccc5cccc(c45)N3C2=Nc2ccccc2)cc1 | > 100 | –
34 | O=C1CCC(=O)N1n1c(Cc2ccccc2)n[nH]c1=O | > 100 | –
35 | Oc1cc2c3c(c1)c1cc4c(cc1c[n+]3CC2)OCO4 | > 100 | –
36 | Cc1cn(C2CC(N(O)C(N)=O)C(CO)O2)c(=O)[nH]c1=O (stereo unspecified) | > 100 | –
37 | O=C1CCC23CC(C=CC=C12)n1c(=O)n(-c2ccccc2)c(=O)n13 (stereo unspecified) | > 100 | –
38 | O=C(O)c1cccc2c1/C(=N/Nc1ccccc1)CC2 | > 100 | –
39 | O=C(Cc1cccs1)N[C@@H]1C(=O)N2C(C(=O)OC(c3ccccc3)c3ccccc3)=C(CO)CS[C@H]12 | > 100 | –
40 | CC1=C(C)[C@@]2(C)O[C@@]2(C)O[C@@]2(C)O[C@@]12C | > 100 | –
41 | O=C([O-])CC(=O)[O-].O=C([O-])CC(=O)[O-].[K+].[Pd+2] | > 100 | > 100

tested on: OVCAR-8 ovarian; experiment: NCI anticancer screen, dose series, 48 h

Row | SMILES | TGI [µM]
42 | O=c1[nH][nH]c(=O)n1Cc1ccccc1Cn1c(=O)[nH][nH]c1=O | > 100
43 | CC1C=C(CCCCCCCCCCCC[C@@H](O)[C@@H]2CC[C@@H]([C@@H]3CC[C@@H](C(O)CCCCCCCCCCCCC4=C[C@H](C)OC4=O)O3)O2)C(=O)O1 (stereo partly specified) | > 100
44 | CCNC(=S)N/N=C/c1cc([N+](=O)[O-])ccc1O | > 100
45 | COc1cc([C@@H]2OCC3C(c4ccc5c(c4)OCO5)OCC32)cc(OC)c1OC (stereo partly specified) | > 100
46 | CCOC(=O)c1c2ccccc2n2c(N)c(C(N)=O)nnc12 | 55
47 | Cc1cc(N(CCC#N)CCC#N)ccc1/C(N=Nc1ccc(Cl)cc1)=N\NC(=O)c1ccccc1 | > 100
48 | CC[C@@]1(O)C(=O)OCc2c1cc1n(c2=O)Cc2c-1nc1ccccc1c2/C=N\NC(=O)CN | > 95.5
49 | CCc1ccc(CCN2CCCCC2)nc1 | > 100
50 | N#CN=C(N(Cc1ccccc1)Cc1ccccc1)N(Cc1ccccc1)Cc1ccccc1 | > 100
